We go through 14 compounds from patent US20230126204A1, “[1,3]DIAZINO[5,4-d]PYRIMIDINES AS HER2 INHIBITORS” (Boehringer Ingelheim International GmbH, priority 2020, published 2023).

Where two headings read alike, the source gives them in different places.

Usually IC50 stands for the point on the concentration scale where inhibition reaches its midpoint. One may read the GI50 as the concentration giving 50% growth inhibition.

What all share (format): cell-based
The target in one assay is T1, HER2 YVMA (Homo sapiens, UniProt P04626, INS775YVMA).
T1 construct: expressed in transfected cells; host or cells: human HEK cells, retroviral transduction, puromycin selection, doxycycline-inducible expression
T1 sequence (P04626 with tags, fused parts or gaps INS775YVMA): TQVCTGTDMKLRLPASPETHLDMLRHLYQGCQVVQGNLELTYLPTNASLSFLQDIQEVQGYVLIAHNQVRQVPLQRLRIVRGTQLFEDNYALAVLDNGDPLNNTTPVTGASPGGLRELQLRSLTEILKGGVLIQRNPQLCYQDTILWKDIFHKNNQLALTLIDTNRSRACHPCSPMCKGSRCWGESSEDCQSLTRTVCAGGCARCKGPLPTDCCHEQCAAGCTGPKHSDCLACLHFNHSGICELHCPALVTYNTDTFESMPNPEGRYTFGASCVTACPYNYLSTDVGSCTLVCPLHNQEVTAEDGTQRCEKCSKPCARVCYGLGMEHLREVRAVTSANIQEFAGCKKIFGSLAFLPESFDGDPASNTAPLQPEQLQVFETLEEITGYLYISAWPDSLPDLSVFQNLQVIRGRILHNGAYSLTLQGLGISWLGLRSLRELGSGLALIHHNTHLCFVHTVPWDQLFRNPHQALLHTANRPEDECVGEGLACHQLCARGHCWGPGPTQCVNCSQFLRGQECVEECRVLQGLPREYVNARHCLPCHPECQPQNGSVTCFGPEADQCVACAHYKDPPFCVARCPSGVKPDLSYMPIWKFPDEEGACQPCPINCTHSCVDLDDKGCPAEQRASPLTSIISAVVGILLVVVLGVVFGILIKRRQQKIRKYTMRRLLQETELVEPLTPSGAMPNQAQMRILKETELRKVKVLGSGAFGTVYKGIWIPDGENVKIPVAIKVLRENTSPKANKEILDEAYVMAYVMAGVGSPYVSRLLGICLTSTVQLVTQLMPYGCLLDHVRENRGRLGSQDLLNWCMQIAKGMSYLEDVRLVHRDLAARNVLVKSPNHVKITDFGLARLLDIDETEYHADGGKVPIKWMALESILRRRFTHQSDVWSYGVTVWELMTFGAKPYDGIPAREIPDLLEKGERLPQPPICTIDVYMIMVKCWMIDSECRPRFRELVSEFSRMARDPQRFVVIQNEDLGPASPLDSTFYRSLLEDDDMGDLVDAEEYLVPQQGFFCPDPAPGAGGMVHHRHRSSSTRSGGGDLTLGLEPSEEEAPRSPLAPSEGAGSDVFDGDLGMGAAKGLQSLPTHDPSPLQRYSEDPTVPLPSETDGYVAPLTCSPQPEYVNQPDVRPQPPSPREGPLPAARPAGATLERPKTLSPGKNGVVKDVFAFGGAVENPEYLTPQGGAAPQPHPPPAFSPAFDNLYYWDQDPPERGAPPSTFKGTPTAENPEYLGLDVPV
Briefly: pHER2 (ERBB2) YVMA assay (AlphaScreen Surefire, HEK cells). As to conditions: HEK cells expressing HER2 YVMA, phosphorylation at Tyr1221/1222, 4 h. As to the method:
(§1) For the assay, HEK HER2 YVMA cells were seeded in MEM medium with 10% FBS. 4 hours prior to compound addition, HER2 YVMA expression was induced using 1 μg/ml Doxycycline. […] Subsequently, 60.000 cells/well in 60 μL were added. Cells were incubated with compounds for 4 h at 37° C. […] The mixture was incubated at a temperature of 20-25° C. with shaking (700 rpm) for 20 min. After centrifugation, 4 μL of the lysate were transferred to Proxiplates. […] Plates were shaken for 1 min (1400 rpm) and incubated for 2 h at a temperature of 20-25° C. in the dark.
The results of the assay are provided as IC50 values.
A general note: In Alpha technology, singlet oxygen from a donor bead excites a nearby acceptor bead.

Assay [1] concerns EGFR WT dependent A431 cells. Put plainly: Tumor cell proliferation assay A431 (EGFR WT dependent). The settings on record: Homo sapiens, A-431, 72 h, CellTiter-Glo, read-out: GI50 A431 EGFR wt amp. As to the method: (§2) For proliferation assays, NCI-H2170 (HER2 wild type), NCI-H2170 HER2 YVMA and EGFR WT dependent A431 cells were used. NCI-H2170 HER2 YVMA or NCI-H2170 cells were seeded into 96-well plates at 750 cells/60 μL in growth media (RPMI ATCC+10% FBS, +Penicillin/Streptomycin). […] Compounds were added by using a HP D3000 Digital Dispenser one day after plating the cells. All treatments were performed in technical triplicates. Treated cells were incubated for 72 h at 37° C. with 5% CO2. CellTiter-Glo® Luminescent Cell Viability Assay (Promega) was performed and chemoluminescence was measured by using the multilabel Plate Reader VICTOR X4. The raw data were imported into and analyzed with the Boehringer Ingelheim proprietary software MegaLab (curve fitting based on the program PRISM, GraphPad Inc.).

In a further assay the test system is Ba/F3 cells EGFR WT. Put plainly: Ba/F3 proliferation assay EGFR WT (EGF dependent). The settings on record: Mus musculus, CellTiter-Glo, read-out: GI50 BAF3 EGF dep. As to the method: (§3) Ba/F3 cell model generation and proliferation assays
(§4) Plasmids containing HER2 mutants and EGFR WT were obtained from GeneScript. To generate EGFR/HER2-dependent Ba/F3 models, Ba/F3 cells were transduced with retroviruses containing vectors that harbor EGFR WT, HER2 WT or HER2 mutants (YVMA). Platinum-E cells (Cell Biolabs) were used for retrovirus packaging. Retrovirus was added to Ba/F3 cells. To ensure infection, 4 μg/mL polybrene was added and cells were spinfected. Infection efficiency was confirmed by measuring GFP-positive cells using a cell analyzer. Cells with an infection efficiency of 10% to 20% were further cultivated and puromycin selection with 1 μg/mL was initiated. As a control, parental Ba/F3 cells were used to assess the selection status. Selection was considered successful when parental Ba/F3 cells cultures died. To evaluate the transforming potential of HER2 mutations, the growth medium was no longer supplemented with IL-3. Ba/F3 cells harboring the empty vector were used as a control. A switch from IL-3 to EGF was performed for Ba/F3 cells with the EGFR WT known for its dependency on EGF ligand. Approximately ten days before conducting the experiments, puromycin was left out. For proliferation assays (data in table 12 and 14), Ba/F3 cells were seeded into 96-well plates at 5×10^3 cells/100 μL in growth media. Compounds were added by using a HP D3000 Digital Dispenser. All treatments were performed in technical triplicates. Treated cells were incubated for 72 h at 37° C. with 5% CO2. CellTiter-Glo® Luminescent Cell Viability Assay (Promega) was performed and chemoluminescence was measured by using the multilabel Plate Reader VICTOR X4. The raw data were imported into and analyzed with the Boehringer Ingelheim proprietary software MegaLab (curve fitting based on the program PRISM, GraphPad Inc.).

In another assay the target is T2, EGFR wild type (WT) (Homo sapiens, UniProt P00533).
T2 construct: expressed in transfected cells; host or cells: human HEK cells (ATCC CRL-1573), retroviral transduction, puromycin selection
T2 sequence (P00533 25-1210): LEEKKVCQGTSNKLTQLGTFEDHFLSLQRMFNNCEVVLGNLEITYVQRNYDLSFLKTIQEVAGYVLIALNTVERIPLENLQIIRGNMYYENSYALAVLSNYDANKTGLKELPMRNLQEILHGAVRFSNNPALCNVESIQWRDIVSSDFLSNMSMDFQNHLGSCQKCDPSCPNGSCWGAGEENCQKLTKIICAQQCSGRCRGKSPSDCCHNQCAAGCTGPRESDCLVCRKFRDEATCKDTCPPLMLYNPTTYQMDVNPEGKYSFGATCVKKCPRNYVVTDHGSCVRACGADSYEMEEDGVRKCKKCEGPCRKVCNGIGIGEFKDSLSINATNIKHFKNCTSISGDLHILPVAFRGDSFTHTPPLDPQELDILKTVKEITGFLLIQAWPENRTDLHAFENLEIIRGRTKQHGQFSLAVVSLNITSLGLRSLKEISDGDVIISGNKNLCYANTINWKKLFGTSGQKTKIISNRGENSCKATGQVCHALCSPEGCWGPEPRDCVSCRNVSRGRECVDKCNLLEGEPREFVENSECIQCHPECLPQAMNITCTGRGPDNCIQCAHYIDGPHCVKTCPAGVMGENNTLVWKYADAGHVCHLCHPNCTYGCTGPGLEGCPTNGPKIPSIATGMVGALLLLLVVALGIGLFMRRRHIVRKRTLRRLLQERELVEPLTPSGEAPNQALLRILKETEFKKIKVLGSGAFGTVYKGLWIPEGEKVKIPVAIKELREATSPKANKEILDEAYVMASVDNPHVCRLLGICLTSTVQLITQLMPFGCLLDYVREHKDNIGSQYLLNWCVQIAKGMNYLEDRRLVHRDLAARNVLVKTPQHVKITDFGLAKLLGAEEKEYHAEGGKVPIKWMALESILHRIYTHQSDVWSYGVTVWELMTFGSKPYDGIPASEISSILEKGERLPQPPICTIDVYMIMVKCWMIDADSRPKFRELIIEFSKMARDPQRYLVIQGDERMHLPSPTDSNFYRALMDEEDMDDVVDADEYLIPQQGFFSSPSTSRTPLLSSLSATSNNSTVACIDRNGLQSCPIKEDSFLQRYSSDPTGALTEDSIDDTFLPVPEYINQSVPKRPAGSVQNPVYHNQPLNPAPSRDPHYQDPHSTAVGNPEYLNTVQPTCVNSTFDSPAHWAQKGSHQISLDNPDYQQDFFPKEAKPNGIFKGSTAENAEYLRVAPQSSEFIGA
Put plainly: pEGFR assay (AlphaScreen Surefire, HEK cells). As to conditions: HEK cells expressing EGFR WT, phosphorylation at Tyr1068, 4 h. As to the method: This assay quantifies the phosphorylation of EGFR at Tyr1068 and was used to measure the inhibitory effect of compounds on the transgenic EGFR wild type (WT) protein expressed in HEK cells.
as §1, with “Transduced cells were selected using puromycin. p-EGFR Tyr1068 was determined using the AlphaScreen Surefire pEGF Receptor (Tyr1068) Assay (PerkinElmer, TGRERS). For” for “For”, “EGFR WT” for “HER2 YVMA”, “FBS.” for “FBS. 4 hours prior to compound addition, HER2 YVMA expression was induced using 1 μg/ml Doxycycline.”
This cellular phospho-EGFR (pEGFR) compound dose-response assay quantifies the phosphorylation of EGFR at Tyr1068 in HEK cells expressing EGFR WT. The results of the assay are provided as IC50 values.

For assay [2], the system named is Ba/F3 cells HER2 mutants (YVMA). Put plainly: Ba/F3 proliferation assay HER2 YVMA. As to conditions: Mus musculus, BaF3, 72 h, CellTiter-Glo. As to the method:
as §3, §4
For orientation: Cellular ATP, detected with luciferase, serves as a proxy for viable cell number.

Assay [3] deals with NCI-H2170 (HER2 wild type) cells. Briefly: Tumor cell proliferation assay NCI-H2170 (HER2 wild type). As to conditions: Homo sapiens, 72 h, CellTiter-Glo, read-out: GI50 NCI H-2170 HER2 wt amp. As to the method: as §2
For assay [4], the system named is NCI-H2170 HER2 YVMA cells. Put plainly: Tumor cell proliferation assay NCI-H2170 HER2 YVMA. As to conditions: Homo sapiens, 72 h, CellTiter-Glo, read-out: GI50 NCI H-2170 HER2 YVMA.
From the text: HER2 YVMA tumor cell line model generation and proliferation assays
Homology-directed genome engineering was employed to insert a 12 nucleotide sequence encoding YVMA into Exon 20 of the genomic HER2 locus in NCI-H2170 cells. […] The DNA template containing the HER2 exon 20 YVMA insertion variant was obtained from GenScript. PCR followed by Sanger sequencing was used to confirm the presence of the 12-nucleotide insertion in HER2 Exon 20 resulting in the YVMA amino acid duplication.
as §2

The test system of another assay is Ba/F3 cells HER2 WT. Briefly: Ba/F3 proliferation assay HER2 WT. As to conditions: Mus musculus, BaF3, 72 h, CellTiter-Glo. As to the method: as §3, §4
Where [5] appears, read: BaF3, EGF instead of IL-3, 72 h.
Where [6] appears, read: BaF3, prior art compounds, EGF instead of IL-3, 72 h.

`C=CC(=O)N1CCN(c2ncc3ncnc(Nc4ccc(Oc5ccc6c(c5)ncn6C)c(C)c4)c3n2)CC1` [Compound I-1]: the half-inhibitory concentration (IC50) on HER2 YVMA was 10 nM; against EGFR wild type (WT), 265 nM. Further, the GI50 in assay [1] was more than 5000 nM; with Ba/F3 cells EGFR WT (setting [5]) it was 2400 nM; in assay [2], 18 nM; in assay [3], 16 nM; in assay [4], 82 nM; in the assay with Ba/F3 cells HER2 WT, 1 nM.

For the compound `C#Cc1cc(Nc2ncnc3cnc(N4CCN(C(=O)C=C)CC4)nc23)ccc1Oc1ccc2c(c1)ncn2C` [Compound I-2], the half-inhibitory concentration (IC50) at HER2 YVMA stood at 10 nM; at EGFR wild type (WT), 380 nM. Further, the GI50 in assay [1] came to 4660 nM; in the assay with Ba/F3 cells EGFR WT (setting [5]), 1380 nM; in assay [2], 9 nM; in assay [3] it was 9 nM; in assay [4], 50 nM; in the assay on Ba/F3 cells HER2 WT, 1 nM.

Turning to `C=CC(=O)N1CCN(c2ncc3ncnc(Nc4ccc(Oc5ccc6c(c5)ncn6C)c(OC)c4)c3n2)CC1` [Compound I-3], the half-maximal inhibitory concentration (IC50) on HER2 YVMA is 17 nM; against EGFR wild type (WT) it was 1170 nM. In addition, the GI50 is more than 5000 nM in assay [1]; 2800 nM in the assay with Ba/F3 cells EGFR WT (setting [5]); 12 nM in assay [2]; 18 nM in assay [3]; 74 nM in assay [4]; 1 nM with Ba/F3 cells HER2 WT.

As to `C=CC(=O)N1CCN(c2ncc3ncnc(Nc4ccc(Oc5ccc6c(c5)ncn6C)c(Cl)c4)c3n2)CC1` [Compound I-4], the IC50 against HER2 YVMA is 10 nM; on EGFR wild type (WT), 221 nM. Besides, the GI50 was more than 5000 nM in assay [1]; 904 nM in the assay on Ba/F3 cells EGFR WT (setting [5]); 17 nM in assay [2]; 11 nM in assay [3]; 81 nM in assay [4]; 2 nM in the assay on Ba/F3 cells HER2 WT.

In the case of `C=CC(=O)N1CCN(c2ncc3ncnc(Nc4ccc(Oc5ccc6c(c5)ncn6C)c(Br)c4)c3n2)CC1` [Compound I-5], the figures for the IC50 against HER2 YVMA and against EGFR wild type (WT) were 15 nM and 232 nM, respectively. Besides, the 50% growth inhibitory concentration (GI50) was 2880 nM in assay [1]; 572 nM in the assay on Ba/F3 cells EGFR WT (setting [5]); 20 nM in assay [2]; 16 nM in assay [3]; 76 nM in assay [4]; 1 nM with Ba/F3 cells HER2 WT.

On to `C=CC(=O)N1CCN(c2ncc3ncnc(Nc4ccc(Oc5ccc6c(c5)ncn6C)c(F)c4)c3n2)CC1` [Compound I-6], for which the values for the IC50 against HER2 YVMA and at EGFR wild type (WT) were 19 nM and 1110 nM, respectively. Besides, the concentration for 50% growth inhibition (GI50) came to 2640 nM in assay [1]; 1840 nM in the assay on Ba/F3 cells EGFR WT (setting [5]); 27 nM in assay [2]; 26 nM in assay [3]; 146 nM in assay [4]; 3 nM with Ba/F3 cells HER2 WT.

With `C=CC(=O)N1CCN(c2ncc3ncnc(Nc4cc(Cl)c(Oc5ccc6c(c5)ncn6C)c(Cl)c4)c3n2)CC1` [Compound I-7], the IC50 against HER2 YVMA amounted to 30 nM; against EGFR wild type (WT), 996 nM. Also, the concentration for 50% growth inhibition (GI50) in assay [1] is more than 5000 nM; in the assay on Ba/F3 cells EGFR WT (setting [5]) it was 1110 nM; in assay [2] it was 37 nM; in assay [3], 25 nM; in assay [4], 118 nM; in the assay on Ba/F3 cells HER2 WT it was 6 nM.

Turning to `C=CC(=O)Nc1ccc2ncnc(Nc3ccc(Oc4ccc5c(c4)ncn5C)c(C)c3)c2c1` [WO 2007/059257 Ex.185, reference compound], the GI50 in assay [1] (prior art compounds) is more than 5000 nM; in assay [2] (prior art compounds), 60 nM.

Consider `C=CC(=O)Nc1cccc(-n2c(=O)c(Oc3ccc(F)cc3F)cc3cnc(Nc4cnn(C)c4)nc32)c1` [WO 2019/046775 Comp.2, reference compound], for which the 50% growth inhibitory concentration (GI50) in assay [1] (prior art compounds) was determined as 16 nM; in the assay on Ba/F3 cells EGFR WT (setting [6]) it was 13 nM; in assay [2] (prior art compounds), 14 nM; in assay [3] (prior art compounds), 22 nM; in assay [4] (prior art compounds), 34 nM; in the assay on Ba/F3 cells HER2 WT (prior art compounds) it was 3 nM.

On to `C=CC(=O)Nc1ccc2ncnc(Nc3ccc(OCc4cccc(F)c4)c(Cl)c3)c2c1` [allitinib, reference compound], for which the 50% growth inhibitory concentration (GI50) turned out to be 31 nM with Ba/F3 cells EGFR WT (setting [6]), 17 nM in assay [2] (prior art compounds) and 36 nM in assay [3] (prior art compounds).

`C=CC(=O)N1CCC[C@@H](n2nc(-c3ccc(Oc4ccccc4)cc3)c3c(N)ncnc32)C1` [ibrutinib, reference compound]: the concentration for 50% growth inhibition (GI50) with Ba/F3 cells EGFR WT (setting [6]) worked out at 70 nM; in assay [2] (prior art compounds) it was 44 nM; in assay [3] (prior art compounds), 16 nM.

Turning to `CCOc1cc2ncc(C#N)c(Nc3ccc(OCc4ccccn4)c(Cl)c3)c2cc1NC(=O)/C=C/CN(C)C` [neratinib, reference compound], the GI50 in assay [1] (prior art compounds) turned out to be 55 nM; in the assay on Ba/F3 cells EGFR WT (setting [6]), 14 nM; in assay [2] (prior art compounds), 5 nM; in assay [3] (prior art compounds) it was 3 nM; in assay [4] (prior art compounds), 37 nM.

On to `C=CC(=O)N1CCC(Oc2cc3c(Nc4ccc(Cl)c(Cl)c4F)ncnc3cc2OC)CC1` [poziotinib, reference compound], for which the concentration for 50% growth inhibition (GI50) in assay [1] (prior art compounds) was determined as 1 nM; in the assay on Ba/F3 cells EGFR WT (setting [6]), 1 nM; in assay [2] (prior art compounds), 2 nM; in assay [3] (prior art compounds), 1 nM; in assay [4] (prior art compounds), 5 nM; in the assay on Ba/F3 cells HER2 WT (prior art compounds), 1 nM.

With `Cc1cc(Nc2ncnc3ccc(NC4=NC(C)(C)CO4)cc23)ccc1Oc1ccn2ncnc2c1` [tucatinib, reference compound], the concentration for 50% growth inhibition (GI50) worked out at 58 nM in assay [3] (prior art compounds) and 10 nM in the assay with Ba/F3 cells HER2 WT (prior art compounds).
